Target: T1, Kinesin-like protein KIF18A (Homo sapiens, UniProt Q8NI77)
T1 sequence (Q8NI77 whole entry): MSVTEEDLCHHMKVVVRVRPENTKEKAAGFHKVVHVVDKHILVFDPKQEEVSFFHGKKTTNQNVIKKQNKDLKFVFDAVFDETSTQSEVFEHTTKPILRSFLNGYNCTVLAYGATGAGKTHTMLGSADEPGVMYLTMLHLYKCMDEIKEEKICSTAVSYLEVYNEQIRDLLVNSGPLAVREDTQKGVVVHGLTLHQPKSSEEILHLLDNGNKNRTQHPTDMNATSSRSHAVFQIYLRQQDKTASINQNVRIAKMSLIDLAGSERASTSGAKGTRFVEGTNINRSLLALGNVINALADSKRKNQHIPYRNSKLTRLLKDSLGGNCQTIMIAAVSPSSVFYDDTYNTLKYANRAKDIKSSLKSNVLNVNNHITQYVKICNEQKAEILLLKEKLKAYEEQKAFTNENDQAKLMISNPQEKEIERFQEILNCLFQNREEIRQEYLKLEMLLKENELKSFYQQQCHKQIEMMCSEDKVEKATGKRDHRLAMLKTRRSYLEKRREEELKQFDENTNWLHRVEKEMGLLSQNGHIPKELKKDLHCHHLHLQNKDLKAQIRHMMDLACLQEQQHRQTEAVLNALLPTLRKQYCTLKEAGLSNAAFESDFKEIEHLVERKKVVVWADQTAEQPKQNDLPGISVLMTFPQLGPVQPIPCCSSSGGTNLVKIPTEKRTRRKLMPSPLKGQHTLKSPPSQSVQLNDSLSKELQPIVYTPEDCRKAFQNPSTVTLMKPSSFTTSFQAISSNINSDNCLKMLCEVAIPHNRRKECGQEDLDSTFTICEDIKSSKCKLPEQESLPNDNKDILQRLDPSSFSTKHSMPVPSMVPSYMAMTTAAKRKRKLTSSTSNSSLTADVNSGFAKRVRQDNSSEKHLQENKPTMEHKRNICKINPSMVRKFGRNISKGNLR
Test: Inhibition of recombinant His-tagged human KIF18A (1 to 467 residues) expressed in baculovirus expression system assessed as inhibition of microtubule-stimulated ATPase activity preincubated for 15 mins followed by ATP addition and further incubated for 15 mins and measured after 40 mins by ADP-Glo reagent based assay

CC(C)(C)NS(=O)(=O)c1cccc(NC(=O)c2ccc(N3CC[C@@H](O)C3)nc2N2CCC3(CC2)CC3)c1 gave an IC50 of 189 nM.

From ChEMBL document CHEMBL5052846, “Pyridine derivatives as kif18a inhibitors” (2021)
